Experimental data reported in US6423853B1, “Continuous ozonolysis of cycloalkenes into ozonides” (E. I. du Pont de Nemours & Comp., priority 2001, dated 2002).

Assays:
[1] = solubility in propionic acid; conditions: using cyclododecene in the present process
Procedure: A reactor system consisting of a jacketed 1 inch, 10 tray glass Oldershaw column, 250 cc bottom receiver, feed pump, and recycle pump were assembled. The initial feed material consisted of 102 g. of propionic acid solvent and 18 g. of cyclododecene. 120 g. of the initial feed material were charged into the reactor system. The temperature of the jacket on the Oldershaw column was adjusted to 20° C. and a recycle flow of 50 cc/min. was established using the recycle pump. An ClearWater Tech modelM-1500 ozone generator was attached to the system. A carrier gas consisting of 20% oxygen in carbon dioxide was fed to the reactor at 2000 cc/min. The gas exit the ozone generator was measured to contain 0.80% ozone. […] At that point, the additional 18 g. of pure CDDM solution was fed to the top of the column at a rate of 00.15 cc/min. The balance between the ozone and the cyclododecene fed allowed an excess of ozone in the reactor off gas at all times.

[2] = disclosed in Maggiolo patent; cited from earlier work

Row | SMILES | ozonide solubility in propionic acid [1] | solubility in isobutyric acid [2]
1 | C1CCCCCC2OOC(CCCC1)O2 [ozonide, cyclododecene ozonide] | about 27.5% | 
2 | C1=CCCCCCC1 [cyclooctene] |  | 20%
